# Test results from patent US20250376466A1, “ESTER COMPOUNDS AND USE THEREOF” (NANJING REJU THERAPEUTICS, CO., LTD., priority 2022, published 2025).
# Assays:
# [1] = tested on: wet-age-related macular degeneration (CNV); experiment: CNV animal model of wet age-related macular degeneration; assay type: in vivo, mice; conditions: intravitreal (IVT); laser CNV model; FIG. 5
# Description: In this example, the efficacy of the compounds of the present disclosure was tested on wet-age-related macular degeneration in a CNV animal model.
# Male mice were administered 0.5% probacaine hydrochloride (Alcon) for local anesthesia, and 1% tropicamide to dilate the pupils of the mice. Laser cauterization was performed using a laser photocoagulator (Novus Varia, LUMENIS) with a slit lamp delivery system. And artificially torn adherent glass coverslips were used as contact lenses. Bleeding spots caused by laser were not included in the statistical data.
# [2] = tested on: senescent A549 cells, IMR90 cells, RPE cells, mouse chondrocytes, mouse skin fibroblasts; experiment: Cell viability of senescent cells (CellTiter-Glo); assay type: cell-based, human; conditions: 1 μM, 72 hours; etoposide (10 μM)-induced senescent cells; FIGS. 2A to 2E
# Description: (§1) In this example, human non-small cell lung cancer cell line (A549 cells), human embryonic lung fibroblast cell line (IMR90 cells), human retinal pigment epithelial cells (RPE cells), mouse chondrocytes, and mouse skin fibroblasts were selected. The cells above were induced to obtain senescent cells by etoposide (10 μM). The effect of the target compounds RZ001-RZ006 and RZ201 on the viability of normal and senescent cells above was detected, thereby evaluating the specific killing effect of the prodrugs RZ001-RZ006 and RZ201 on senescent cells above.
# (§2) Briefly, senescent and normal cells above were selected and plated separately (96-well plates). After adding the compounds RZ001-RZ006 and RZ201 (concentration: 1 μM) for 72 hours, CellTiter-Glo® Luminescent Cell Viability Assay Kit (Promega) was used to detect cell viability, and the results were shown in FIGS. 2A to 2E.
# [3] = tested on: oxygen-induced retinopathy (OIR); experiment: Mouse model of oxygen-induced retinopathy (OIR); assay type: in vivo; conditions: intravitreal (IVT), 1 μl of 200 μM at P12, retinas at P17, IB4 staining; FIG. 3
# Description: The efficacy of the prodrugs RZ001-RZ006 as well as RZ201 were investigated in a mouse model of oxygen-induced retinopathy (OIR) which to some extent indicates an in vivo model of retinopathy of prematurity (ROP), diabetic retinopathy, and wet age-related macular degeneration. From postnatal Day 7 (P7) to Day 12 (P12), C57Bl/6 mouse pups and their CD1 foster mothers were exposed to hyperoxia (75% O2). At P12, the animals were injected intravitreally with 1 μl of the test composition formulated in 1% DMSO, 10% Tween 80, and 20% PEG-400 (200 μM the compound) and returned to room air until Day 17 (P17). On P17, the eyeballs were enucleated and the retinas were dissected for vascular staining. To determine the area of avascularity or angiogenesis, the retinas were flattened and stained with isolectin B4 (IB4).
# [4] = tested on: normal A549 cells, IMR90 cells, RPE cells, mouse chondrocytes, mouse skin fibroblasts; experiment: Cell viability of normal cells (CellTiter-Glo); assay type: cell-based, human; conditions: 1 μM, 72 hours, FIGS. 2A to 2E
# Description: as §1, §2
# [5] = tested on: normal and senescent A549 cells; experiment: Senescent cell clearance index (senolytic index); assay type: cell-based, human; conditions: higher index = greater specificity
# Description: as §1, §2
# Furthermore, the senescent cell clearance index (senolytic index) was also calculated for both normal and senescent A549 cells, as shown in Table 4. A higher index indicates greater specificity in eliminating senescent cells and better safety.
# [6] = tested on: hypertrophic scars; experiment: Rabbit ear hypertrophic scar model; assay type: in vivo, New Zealand white rabbits; conditions: 150 μM, 100 μL injected into lesion once a week, 4 injections, from postoperative Day 14; FIG. 12
# Description: In this example, the efficacy of the compounds of the present disclosure was tested on hypertrophic scars in a rabbit ear hypertrophic scar animal model. Briefly, 10 New Zealand white rabbits, male, 3 months old, were used. The New Zealand rabbits were anaesthetized with sodium pentobarbital and six circular full-thickness wounds with a diameter of 10 mm were made on the ventral surface of each ear by removing the epidermis, dermis and perichondrium to expose the cartilage. The rabbits were randomly divided into control and RZ001 experimental groups. On postoperative Day 14, after complete re-epithelialization of the wound surface, the compound (150 μM, 100 μL, dissolved in DMSO solution) or negative control DMSO 100 μL was injected into the center of each lesion from the wound edge once a week for a total of 4 injections. Improvement of scar formation by the compound was assessed by SEI (Scar Excess Index).
Structure (SMILES),fluorescence intensity indicators [1],cytotoxicity against senescent cells (cell viability) [2],angiogenesis [3],avascular zone [3],cytotoxicity against normal cells (cell viability) [4],senescent cell clearance index (Senolytic Index) [5],scar excess index (SEI) [6]
Cc1oc(=O)oc1COC(=O)c1nc(N2CCc3cccc(C(=O)Nc4nc5ccccc5s4)c3C2)ccc1-c1cnn(CC23CC4CC(CC(C4)C2)C3)c1C [RZ201],statistically significant improvements,cytotoxicity primarily against senescent cells,statistically significant improvements,statistically significant improvements,without significant killing effects on normal cells,A (A represents more than 200),–
Cc1c(-c2ccc(N3CCc4cccc(C(=O)Nc5nc6ccccc6s5)c4C3)nc2C(=O)OCOC(=O)C(C)C)cnn1CC12CC3CC(CC(C3)C1)C2 [RZ001],statistically significant improvements,–,–,–,–,A (A represents more than 200),statistically significant improvement
